Test in all cases: biochemical
Design in all cases: Eurofins KinaseProfiler full panel at Km ATP, residual kinase activity (%) relative to DMSO

One assay deals with T1, TAO2(h) (Homo sapiens, UniProt Q9UL54).
T1 construct: gene TAOK2
T1 sequence (Q9UL54 1-1235): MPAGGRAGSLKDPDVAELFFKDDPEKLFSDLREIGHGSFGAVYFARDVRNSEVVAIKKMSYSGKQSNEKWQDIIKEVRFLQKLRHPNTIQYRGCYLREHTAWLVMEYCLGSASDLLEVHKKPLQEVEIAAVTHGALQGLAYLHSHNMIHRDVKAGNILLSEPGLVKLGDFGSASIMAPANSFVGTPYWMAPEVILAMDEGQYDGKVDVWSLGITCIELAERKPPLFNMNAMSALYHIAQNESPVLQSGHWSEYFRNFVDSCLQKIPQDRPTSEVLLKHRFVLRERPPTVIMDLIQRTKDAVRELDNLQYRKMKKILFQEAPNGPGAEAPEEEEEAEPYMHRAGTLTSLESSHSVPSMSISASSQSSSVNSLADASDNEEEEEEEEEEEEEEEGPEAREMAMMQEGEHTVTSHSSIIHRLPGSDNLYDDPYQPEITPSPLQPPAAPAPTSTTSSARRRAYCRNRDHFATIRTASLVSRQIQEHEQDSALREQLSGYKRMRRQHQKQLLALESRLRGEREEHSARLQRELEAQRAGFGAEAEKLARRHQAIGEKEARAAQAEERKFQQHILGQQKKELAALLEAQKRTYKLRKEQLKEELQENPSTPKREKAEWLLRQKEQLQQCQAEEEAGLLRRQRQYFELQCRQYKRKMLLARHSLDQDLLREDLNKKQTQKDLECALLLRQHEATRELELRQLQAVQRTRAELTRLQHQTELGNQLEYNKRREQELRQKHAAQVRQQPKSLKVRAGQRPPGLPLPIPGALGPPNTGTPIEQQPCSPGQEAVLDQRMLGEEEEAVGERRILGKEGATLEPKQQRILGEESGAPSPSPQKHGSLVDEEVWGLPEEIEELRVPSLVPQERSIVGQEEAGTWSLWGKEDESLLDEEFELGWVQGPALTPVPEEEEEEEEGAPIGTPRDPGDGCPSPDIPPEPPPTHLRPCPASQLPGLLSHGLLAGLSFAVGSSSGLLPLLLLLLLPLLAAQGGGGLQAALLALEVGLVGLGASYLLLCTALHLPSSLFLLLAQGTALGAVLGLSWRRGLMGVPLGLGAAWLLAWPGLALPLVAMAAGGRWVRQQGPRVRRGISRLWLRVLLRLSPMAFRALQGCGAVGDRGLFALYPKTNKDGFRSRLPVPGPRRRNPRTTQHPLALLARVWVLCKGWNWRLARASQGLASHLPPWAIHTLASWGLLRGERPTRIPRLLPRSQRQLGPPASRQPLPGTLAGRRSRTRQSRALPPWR
A digest of the protocol:
(§1)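 Two 10 µM single-concentration screens were run: a competition-binding screen, in which DNA-tagged kinase bound to immobilized ligands was quantified by qPCR, and a radiometric activity panel at Km ATP. Each is expressed as residual kinase activity (%).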

The target of a further assay is T2, PDK1(h) (Homo sapiens, UniProt O15530).
T2 construct: gene PDPK1
T2 sequence (O15530 1-556): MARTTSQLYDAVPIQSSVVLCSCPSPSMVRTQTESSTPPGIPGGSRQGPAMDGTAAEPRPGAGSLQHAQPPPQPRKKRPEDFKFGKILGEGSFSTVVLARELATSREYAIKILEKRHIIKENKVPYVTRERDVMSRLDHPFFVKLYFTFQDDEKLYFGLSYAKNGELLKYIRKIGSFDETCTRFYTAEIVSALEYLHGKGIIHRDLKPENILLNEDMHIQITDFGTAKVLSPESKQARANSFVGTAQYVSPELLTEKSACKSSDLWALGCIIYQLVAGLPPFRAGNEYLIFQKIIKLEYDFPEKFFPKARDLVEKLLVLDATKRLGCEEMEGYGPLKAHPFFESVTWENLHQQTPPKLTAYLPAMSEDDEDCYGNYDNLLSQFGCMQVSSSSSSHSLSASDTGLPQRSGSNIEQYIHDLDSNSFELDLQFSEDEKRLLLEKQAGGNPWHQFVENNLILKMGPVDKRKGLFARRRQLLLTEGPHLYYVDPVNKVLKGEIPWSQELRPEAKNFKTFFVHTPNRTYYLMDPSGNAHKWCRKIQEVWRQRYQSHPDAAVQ
The gist of the method:
as §1

Another assay addresses T3, B-Raf(h) (Homo sapiens, UniProt P15056).
T3 construct: gene BRAF
The gist of the method: as §1

The target in assay [1] is T4, PI3 Kinase (p110a/p85a)(h) (Homo sapiens, UniProt P42336).
T4 construct: gene PIK3CA
A digest of the protocol:
as §1

A further assay addresses T5, Aurora-A(h) (Homo sapiens, UniProt O14965).
T5 construct: gene AURKA
T5 sequence (O14965 1-403): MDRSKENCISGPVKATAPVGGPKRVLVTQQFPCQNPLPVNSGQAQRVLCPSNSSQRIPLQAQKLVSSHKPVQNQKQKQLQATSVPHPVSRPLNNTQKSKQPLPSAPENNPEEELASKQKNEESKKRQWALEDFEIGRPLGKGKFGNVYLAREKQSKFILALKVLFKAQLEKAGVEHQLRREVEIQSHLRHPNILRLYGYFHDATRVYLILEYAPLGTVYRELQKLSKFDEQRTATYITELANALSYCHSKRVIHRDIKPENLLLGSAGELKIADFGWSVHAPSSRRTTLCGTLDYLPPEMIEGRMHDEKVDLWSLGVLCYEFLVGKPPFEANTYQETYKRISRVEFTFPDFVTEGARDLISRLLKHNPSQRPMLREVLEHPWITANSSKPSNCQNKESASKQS
A digest of the protocol: as §1

The mark [2] stands for this setting: read-out: Residual activity (%) 5at.
The mark [3] stands for this setting: read-out: Residual activity (%) 5ay.
The mark [4] stands for this setting: read-out: Residual activity (%) 5as.
The mark [5] stands for this setting: read-out: Residual activity (%) Spautin-1 5aa.

Where two headings read alike, the source gives them in different places.

T3 sequence (P15056 whole entry): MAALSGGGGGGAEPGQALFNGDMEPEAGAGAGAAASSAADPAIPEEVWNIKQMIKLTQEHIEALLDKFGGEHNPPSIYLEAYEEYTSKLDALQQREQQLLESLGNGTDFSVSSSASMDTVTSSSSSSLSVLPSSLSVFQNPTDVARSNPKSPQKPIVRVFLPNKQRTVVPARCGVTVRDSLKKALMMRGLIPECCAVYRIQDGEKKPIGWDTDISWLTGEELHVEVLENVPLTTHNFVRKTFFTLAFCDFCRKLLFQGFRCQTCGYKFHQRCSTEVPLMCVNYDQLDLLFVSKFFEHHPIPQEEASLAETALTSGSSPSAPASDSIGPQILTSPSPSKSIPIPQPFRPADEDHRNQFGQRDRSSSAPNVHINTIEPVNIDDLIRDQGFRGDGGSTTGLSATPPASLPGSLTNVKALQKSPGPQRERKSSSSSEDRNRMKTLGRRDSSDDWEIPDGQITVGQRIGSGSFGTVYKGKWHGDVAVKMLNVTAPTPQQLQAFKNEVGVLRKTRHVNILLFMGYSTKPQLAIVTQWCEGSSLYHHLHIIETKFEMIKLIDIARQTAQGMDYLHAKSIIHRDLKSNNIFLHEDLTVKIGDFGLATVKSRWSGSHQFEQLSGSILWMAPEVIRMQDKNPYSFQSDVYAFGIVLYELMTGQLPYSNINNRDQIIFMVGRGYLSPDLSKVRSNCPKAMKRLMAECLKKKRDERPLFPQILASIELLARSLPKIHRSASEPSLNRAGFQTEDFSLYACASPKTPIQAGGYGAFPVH
T4 sequence (P42336 whole entry): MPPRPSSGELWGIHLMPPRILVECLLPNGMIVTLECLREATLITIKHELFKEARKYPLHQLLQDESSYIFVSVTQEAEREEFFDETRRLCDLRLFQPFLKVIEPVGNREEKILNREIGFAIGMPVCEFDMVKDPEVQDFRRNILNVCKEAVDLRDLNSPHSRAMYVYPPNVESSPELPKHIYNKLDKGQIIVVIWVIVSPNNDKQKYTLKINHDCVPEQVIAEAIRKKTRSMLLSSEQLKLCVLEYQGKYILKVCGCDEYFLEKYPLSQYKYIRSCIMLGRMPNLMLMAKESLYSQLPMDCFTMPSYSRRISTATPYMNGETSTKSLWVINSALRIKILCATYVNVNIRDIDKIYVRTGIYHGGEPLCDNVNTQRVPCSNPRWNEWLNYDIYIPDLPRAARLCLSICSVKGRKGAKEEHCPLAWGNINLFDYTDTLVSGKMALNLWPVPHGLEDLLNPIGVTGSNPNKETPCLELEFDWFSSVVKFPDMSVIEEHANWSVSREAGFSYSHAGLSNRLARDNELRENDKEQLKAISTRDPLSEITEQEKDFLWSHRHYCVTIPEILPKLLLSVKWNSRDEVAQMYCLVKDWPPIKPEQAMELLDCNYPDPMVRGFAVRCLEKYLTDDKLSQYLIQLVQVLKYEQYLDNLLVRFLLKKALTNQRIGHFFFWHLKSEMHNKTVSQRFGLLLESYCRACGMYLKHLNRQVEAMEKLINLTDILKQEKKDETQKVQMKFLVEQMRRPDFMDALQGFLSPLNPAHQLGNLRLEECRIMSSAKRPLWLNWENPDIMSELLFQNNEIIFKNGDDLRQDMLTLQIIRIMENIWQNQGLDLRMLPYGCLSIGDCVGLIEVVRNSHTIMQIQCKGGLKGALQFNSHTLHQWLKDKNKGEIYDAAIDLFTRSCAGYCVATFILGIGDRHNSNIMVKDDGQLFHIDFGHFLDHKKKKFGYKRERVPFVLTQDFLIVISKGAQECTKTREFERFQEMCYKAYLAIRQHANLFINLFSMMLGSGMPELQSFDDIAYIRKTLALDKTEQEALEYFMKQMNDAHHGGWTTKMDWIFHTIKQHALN
T4 sequence (P27986 whole entry partner): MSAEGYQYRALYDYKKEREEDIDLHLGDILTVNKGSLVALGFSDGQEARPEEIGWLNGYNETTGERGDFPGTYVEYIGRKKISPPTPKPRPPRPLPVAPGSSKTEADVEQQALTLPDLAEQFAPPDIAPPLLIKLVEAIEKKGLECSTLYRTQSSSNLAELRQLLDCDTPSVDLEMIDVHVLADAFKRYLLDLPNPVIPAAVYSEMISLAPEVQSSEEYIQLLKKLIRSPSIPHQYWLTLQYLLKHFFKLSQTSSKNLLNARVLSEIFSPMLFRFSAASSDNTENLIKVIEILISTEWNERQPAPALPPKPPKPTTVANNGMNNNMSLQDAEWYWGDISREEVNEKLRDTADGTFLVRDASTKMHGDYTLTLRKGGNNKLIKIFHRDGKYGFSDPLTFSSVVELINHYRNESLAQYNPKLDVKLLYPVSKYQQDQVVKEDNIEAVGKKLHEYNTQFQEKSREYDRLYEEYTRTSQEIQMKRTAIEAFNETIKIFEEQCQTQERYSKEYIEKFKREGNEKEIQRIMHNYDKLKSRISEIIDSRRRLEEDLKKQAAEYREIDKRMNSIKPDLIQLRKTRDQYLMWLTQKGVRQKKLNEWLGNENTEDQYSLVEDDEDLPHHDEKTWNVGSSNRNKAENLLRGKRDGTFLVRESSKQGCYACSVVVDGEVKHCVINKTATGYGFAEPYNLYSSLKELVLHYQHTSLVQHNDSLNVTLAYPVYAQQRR

Consider `Fc1ccc2ncnc(NCCc3ccc(Cl)cc3)c2c1` [5at, N-[2-(4-Chlorophenyl)Ethyl]-6-Fluoro-4-Quinazolinamine], for which the remaining activity at 10 µM worked out at 107% on TAO2(h) (setting [2]); 84% on PDK1(h) (setting [2]); 92% at B-Raf(h) (setting [2]); 94% in assay [1] (setting [2]); 70% at Aurora-A(h) (setting [2]).

`COc1ccc2ncnc(Nc3cccc(F)c3)c2c1` [5ay, N-(3-Fluorophenyl)-6-Methoxy-4-Quinazolinamine]: the remaining activity at 10 µM at TAO2(h) (setting [3]) came out at 112%; at PDK1(h) (setting [3]) it was 90%; at B-Raf(h) (setting [3]), 82%; in assay [1] (setting [3]), 101%; on Aurora-A(h) (setting [3]), 79%.

Regarding `Fc1ccc(CCNc2ncnc3ccc(F)cc23)cc1` [5as, 6-Fluoro-N-[2-(4-Fluorophenyl)Ethyl]-4-Quinazolinamine], the remaining activity at 10 µM at TAO2(h) (setting [4]) was found to be 109%; on PDK1(h) (setting [4]), 88%; on B-Raf(h) (setting [4]), 83%; in assay [1] (setting [4]), 103%; at Aurora-A(h) (setting [4]), 87%.

For `Fc1ccc(CNc2ncnc3ccc(F)cc23)cc1` [5aa, 6-Fluoro-N-(4-fluorobenzyl)-4-Quinazolinamine], the remaining activity at 10 µM at TAO2(h) (setting [5]) was found to be 110%; at PDK1(h) (setting [5]), 102%; on B-Raf(h) (setting [5]), 90%; in assay [1] (setting [5]), 100%; on Aurora-A(h) (setting [5]), 81%.

These data come from PMC7827406, “Structure–Activity Relationship (SAR) Study of Spautin-1 to Entail the Discovery of Novel NEK4 Inhibitors” (International Journal of Molecular Sciences, 2021).
